Assay results: patent US9834823B2, “Primers, assays and methods for detecting an E. coli subtype” (priority 2012, dated 2017)

Legend:
Format in all cases: cell-based
[1] = tested on: extraintestinal Escherichia coli isolates; assay: Antimicrobial susceptibility testing (CLSI breakpoints), Olmsted County isolates; conditions: for Resistance prevalence among H30 ST131: H30 ST131 subclone, N = 70; for Resistance prevalence among non-H30 ST131: non-H30 ST131, N = 10
[2] = tested on: Escherichia coli clinical isolates from U.S. veterans; assay: Susceptibility testing (broth microdilution or disk diffusion) at VAMCs with population back-calculations; conditions: for Prevalence of resistance, H30 ST131: H30 ST131 subclone isolates (H30 subclone vs. others); for Prevalence of resistance, ST131: ST131 isolates (ST131 vs. others); for Prevalence of resistance, Total (%): all isolates; for Estimated fraction due to ST131: fraction of resistance phenotype due to ST131; for Overall prevalence in population, %: resistance phenotype, back-calculated with 29% FQ resistance
[3] = tested on: Escherichia coli clinical isolates (ESBL-positive and ESBL-negative; ST131 subclones); assay: Broth microdilution antimicrobial susceptibility, NorthShore ESBL case-control isolates; conditions: for No. of resistant isolates (column %), H30-Rx (N = 47): H30-Rx subclone isolates (N = 47) within the H30 ST131 subclone; for No. of resistant isolates (column %), H30, non-Rx (N = 15): H30 non-Rx isolates (N = 15) within the H30 ST131 subclone; for No. of resistant isolates (column %), H30 (N = 62): H30 subclone isolates (N = 62) among 71 E. coli ST131 isolates; for No. of resistant isolates (column %), Non-H30 (N = 9): non-H30 isolates (N = 9) among 71 E. coli ST131 isolates
Source text: As reported elsewhere, the 267 E. coli study isolates were collected between 2007 and 2010 as part of a prospective case-control study conducted at NorthShore University HealthSystem (Banerjee, R J et al. “Predictors and molecular epidemiology of community-onset extended-spectrum beta-lactamase (ESBL) Escherichia coli infection in a Midwestern community,” 2013 Infect Control Hosp Epidemiol; in press). Cases were defined as adults with ESBL-producing E. coli cultured from any specimen type. Controls were defined as the 1 or 2 patients with non-ESBL E. coli isolates identified just subsequent to the case isolate, and with the same specimen type and location of collection. Isolates obtained in the outpatient setting or within 48 hours of hospital admission were considered causes of community-associated infection. Further study details are as described (Banerjee, R J et al. “Predictors and molecular epidemiology of community-onset extended-spectrum beta-lactamase (ESBL) Escherichia coli infection in a Midwestern community,” 2013 Infect Control Hosp Epidemiol; in press).
The resistance score was the total number of agents to which an isolate was resistant. This study was approved by the NorthShore and VA Medical Center institutional review boards.

[4] = all non-H30 isolates (H30 subclone vs. others)
[5] = all non-ST131 isolates (ST131 vs. others)
[6] = resistance prevalence among H30 ST131 subclone isolates relative to all other isolates
[7] = resistance prevalence among ST131 isolates relative to all other isolates
[8] = ESBL-negative isolates, All N = 167
[9] = ESBL-negative isolates, Non-ST131 N = 145
[10] = ESBL-negative isolates, ST131 N = 22
[11] = ESBL-positive isolates, All N = 100
[12] = ESBL-positive isolates, Non-ST131 N = 51
[13] = ESBL-positive isolates, ST131 N = 49

Row | Compound | No. of resistant isolates (column %) ([1]; All isolates, N = 299) | Resistance prevalence among H30 ST131 [1] | No. of resistant isolates (column %) ([1]; Other STs, N = 129) | No. of resistant isolates (column %) ([1]; ST9, N = 32) | No. of resistant isolates (column %) ([1]; ST69, N = 15) | No. of resistant isolates (column %) ([1]; ST73, N = 25) | No. of resistant isolates (column %) ([1]; ST127, N = 18) | No. of resistant isolates (column %) ([1]; ST131, N = 80) | Resistance prevalence among non-H30 ST131 [1] | Prevalence of resistance, H30 ST131 [2] | Prevalence of resistance, ST131 [2] | Prevalence of resistance, Total (%) [2] | Prevalence of resistance, Others (%) [2, 4] | Prevalence of resistance, Others (%) [2, 5] | Estimated fraction due to ST131 [2] | Overall prevalence in population, % [2] | Prevalence ratio of resistance [2, 6] | Prevalence ratio of resistance [2, 7] | No. resistant (column %) [3, 8] | No. resistant (column %) [3, 9] | further results
1 | CC1(C)S[C@@H]2[C@H](NC(=O)[C@H](N)c3ccccc3)C(=O)N2[C@H]1C(=O)O [Ampicillin, ampicillin] | 156 (52) | 81% | 3 (41) | 13 (41) | 11 (73) | 10 (40) | 4 (22) | 65 (81) | 80% | 76 | 77 | 46% | 36% | 34% | .46 | 46% | 2.1 | 2.3 | 73 (44) | 54 (37) | No. resistant (column %) [3, 10]: 19 (86); No. resistant (column %) [3, 11]: 100 (100); No. resistant (column %) [3, 12]: 51 (100); No. resistant (column %) [3, 13]: 49 (100); No. of resistant isolates (column %), H30-Rx (N = 47) [3]: 46 (98) No. (column %); No. of resistant isolates (column %), H30, non-Rx (N = 15) [3]: 15 (100) No. (column %); No. of resistant isolates (column %), H30 (N = 62) [3]: 61 (98) No. (column %); No. of resistant isolates (column %), Non-H30 (N = 9) [3]: 7 (78) No. (column %)
2 | Cc1nnc(SCC2=C(C(=O)O)N3C(=O)[C@@H](NC(=O)Cn4cnnn4)[C@H]3SC2)s1 [Cefazolin, cefazolin] | 93 (31) | 58% | 30 (23) | 3 (9) | 5 (33) | 7 (28) | 3 (17) | 45 (57) | 50% | 27 | 29 | 17% | 14% | 12% | .47 | 17% | 2.0 | 2.3 | 10 (6) | 9 (6) | No. resistant (column %) [3, 10]: 1 (5); No. resistant (column %) [3, 11]: 99 (99); No. resistant (column %) [3, 12]: 51 (100); No. resistant (column %) [3, 13]: 48 (98); No. of resistant isolates (column %), H30-Rx (N = 47) [3]: 43 (91) No. (column %); No. of resistant isolates (column %), H30, non-Rx (N = 15) [3]: 5 (33) No. (column %); No. of resistant isolates (column %), H30 (N = 62) [3]: 48 (77) No. (column %); No. of resistant isolates (column %), Non-H30 (N = 9) [3]: 1 (11) No. (column %)
3 | CC(C)(O/N=C(\C(=O)N[C@@H]1C(=O)N2C(C(=O)[O-])=C(C[n+]3ccccc3)CS[C@H]12)c1csc(N)n1)C(=O)O [Ceftazidime] | – | – | – | – | – | – | – | – | – | – | – | – | – | – | – | – | – | – | 1 (1) | 1 (1) | No. resistant (column %) [3, 10]: 0 (0); No. resistant (column %) [3, 11]: 92 (92); No. resistant (column %) [3, 12]: 47 (92); No. resistant (column %) [3, 13]: 45 (92); No. of resistant isolates (column %), H30-Rx (N = 47) [3]: 40 (85) No. (column %); No. of resistant isolates (column %), H30, non-Rx (N = 15) [3]: 4 (27) No. (column %); No. of resistant isolates (column %), H30 (N = 62) [3]: 44 (71) No. (column %); No. of resistant isolates (column %), Non-H30 (N = 9) [3]: 1 (11) No. (column %)
4 | CO/N=C(\C(=O)N[C@@H]1C(=O)N2C(C(=O)O)=C(CSc3nc(=O)c(=O)[nH]n3C)CS[C@H]12)c1csc(N)n1 [Ceftriaxone, ceftriaxone] | 16 (6) | 9% | 8 (7) | 0 | 0 | 0 | 0 | 8 (11) | 29% | 4 | 3 | 2% | 2% | 2% | .43 | 2% | 2.0 | 1.9 | 1 (1) | 1 (1) | No. resistant (column %) [3, 10]: 0 (0); No. resistant (column %) [3, 11]: 98 (98); No. resistant (column %) [3, 12]: 51 (100); No. resistant (column %) [3, 13]: 47 (96); No. of resistant isolates (column %), H30-Rx (N = 47) [3]: 42 (89) No. (column %); No. of resistant isolates (column %), H30, non-Rx (N = 15) [3]: 4 (27) No. (column %); No. of resistant isolates (column %), H30 (N = 62) [3]: 46 (74) No. (column %); No. of resistant isolates (column %), Non-H30 (N = 9) [3]: 1 (11) No. (column %)
5 | C[C@@H](O)[C@H]1C(=O)N2C(C(=O)O)=C(SCCN=CN)C[C@H]12 [Imipenem, imipenem] | 3 (1) | – | 1 (1) | 0 | 0 | 0 | 2 (14) | 0 | – | 0.5 | 0.4 | 0.25% | 0.2% | 0.2% | .50 | 0.25% | 1.4 | 1.4 | – | – | –
6 | O=C1CN(/N=C/c2ccc([N+](=O)[O-])o2)C(=O)N1 [Nitrofurantoin, nitrofurantoin] | 8 (3) | 3% | 3 (2) | 1 (3) | 0 | 1 (4) | 0 | 3 (4) | 13% | 8 | 8 | 6% | 5% | 5% | .36 | 6% | 3.4 | 3.2 | – | – | –
7 | ampicillin/sulbactam | – | – | – | – | – | – | – | – | – | 57 | 58 | 34% | 27% | 24% | .48 | 34% | 2.1 | 2.4 | – | – | –
8 | piperacillin/tazobactam | 6 (2) | 1% | 2 (2) | 0 | 0 | 2 (8) | 1 (6) | 1 (1) | 0% | – | – | – | – | – | – | – | – | – | – | – | –
